Broadly, the IC50 is the concentration at which inhibition is half-maximal. As usually defined, the Ki is a dissociation constant, usually derived from enzyme kinetics or from competition with a known ligand. A higher Ki goes with a looser hold on the target.

Experiment [1] has as its target T1, Aldo-keto reductase family 1 member C3 (Homo sapiens, UniProt P42330).
T1 sequence (P42330 whole entry): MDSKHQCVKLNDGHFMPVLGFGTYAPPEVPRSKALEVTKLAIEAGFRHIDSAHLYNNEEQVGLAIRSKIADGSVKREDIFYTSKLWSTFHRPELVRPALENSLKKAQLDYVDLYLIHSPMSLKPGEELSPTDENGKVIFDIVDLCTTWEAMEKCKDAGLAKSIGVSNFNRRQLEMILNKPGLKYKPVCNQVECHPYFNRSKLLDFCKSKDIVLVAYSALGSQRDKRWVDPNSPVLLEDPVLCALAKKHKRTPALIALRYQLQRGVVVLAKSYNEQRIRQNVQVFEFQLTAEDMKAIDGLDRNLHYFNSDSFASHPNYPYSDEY
Kind of experiment: Scintillation Proximity Assay (SPA). To be noted: pH 6; 22 °C. Here is the method:
SPA beads conjugated to anti-mouse IgG were incubated overnight in buffer with anti-testosterone monoclonal antibody. The enzymatic reaction was monitored by its conversion of 4-androstene-3, 17-dione to testosterone. The amount of [14C] testosterone produced in each well was determined by scintillation counting on a Perkin Elmer TopCount instrument and collected as DPMs. The data was then analyzed and percent inhibition and/or IC50 values, based on 10 point serially diluted curves in duplicate or triplicate, were calculated using Microsoft Excel and XLFit programs.

The target of experiment [2] is T1, Aldo-keto reductase family 1 member C3. The experiment in a line: Inhibition Study on the Interconversion of Testosterone to Androstenedione (4-dione). Conditions: pH 7.5; 37 °C. Here is the method:
A radioactive assay was used for the enzyme kinetics in the presence of EM1404 at different concentrations for its Ki determination. Reactions were initiated by the addition of enzyme to the reaction mixture containing substrate and test compounds. After the reaction, the steroids were extracted, separated by TLC migration, and analyzed by phosphorimaging. The Km for testosterone oxidation in the absence of EM-1404, and four apparent Km values in the presence of 1, 3, 10, and 25 nM EM-1404, were determined. Ki value was further determined by a plot of Km vs. the inhibitor concentration.

On to `COCCOc1cc2c(cc1C(=O)ON)C1CC[C@@]3(C)C(CC[C@@]34CCC(C)(C)C(=O)O4)C1CC2` (stereo partly drawn) [(2R,15'S)-5'-(2-methoxyethoxy)-5,5,15'-trimethyl-6-oxospiro[oxane-2,14'-tetracyclo[8.7.0.0^{2,7}.0^{11,15}]heptadecane]-2',4',6'-triene-4'-carboxylate], for which, in experiment [1], the IC50 worked out at 9.5 nM. On to `CC1(C)CC[C@@]2(CCC3C4CCc5cc(C(N)=O)ccc5C4CC[C@@]32C)OC1=O` (stereo partly drawn) [(2R,15'S)-5,5,15'-trimethyl-6-oxospiro[oxane-2,14'-tetracyclo[8.7.0.0^{2,7}.0^{11,15}]heptadecane]-2',4',6'-triene-5'-carboxamide], for which, in experiment [1], 3.2 nM corresponded to half-maximal inhibition (IC50). Besides, in experiment [2], the inhibition constant Ki was 6.9 nM.

Source of the values: BindingDB's records for doi:10.1074/jbc.M606784200 (Chul, 2007).
